Test results as given in ChEMBL document CHEMBL4043144, “Design, synthesis and evaluation of 2,2-dimethyl-1,3-dioxolane derivatives as human rhinovirus 3C protease inhibitors” (Bioorg Med Chem Lett, 2017).

How the values were obtained:
Human rhinovirus sp. [1] = test: Inhibition of recombinant N-terminal His-tagged HRV 3C protease expressed in Escherichia coli at 100 uM preincubated for 15 mins followed by LEVLFQGPSK substrate addition after 45 mins by reverse-phase HPLC analysis relative to control
Human rhinovirus sp. [2] = test: Inhibition of recombinant N-terminal His-tagged HRV 3C protease expressed in Escherichia coli at 10 uM preincubated for 15 mins followed by LEVLFQGPSK substrate addition after 45 mins by reverse-phase HPLC analysis relative to control
[3] = Inhibition of recombinant N-terminal His-tagged HRV 3C protease expressed in Escherichia coli preincubated for 15 mins followed by LEVLFQGPSK substrate addition after 45 mins by reverse-phase HPLC analysis; parameters: species or system Human rhinovirus sp.

SMILES: COc1cccc(NCCNC(=O)[C@@H]2OC(C)(C)O[C@H]2C(=O)Nc2ccc3ccccc3c2)c1
- inhibition (Human rhinovirus sp. [1]): 80.6%
- inhibition (Human rhinovirus sp. [2]): 44%
- IC50 [3]: > 10 µM

SMILES: CC1(C)O[C@H](C(=O)Nc2nc3ccccc3s2)[C@@H](C(=O)N2CCN(c3ccccc3)CC2)O1
- inhibition (Human rhinovirus sp. [1]): 67.8%
- inhibition (Human rhinovirus sp. [2]): 17.5%
- IC50 [3]: > 10 µM

SMILES: CC1(C)O[C@H](C(=O)Nc2nc3ccccc3s2)[C@@H](C(=O)N2CCN(c3ccccn3)CC2)O1
- inhibition (Human rhinovirus sp. [1]): 82.5%
- inhibition (Human rhinovirus sp. [2]): 10.8%
- IC50 [3]: > 10 µM

SMILES: CC1(C)O[C@@H](C(=O)Nc2nc3ccccc3s2)[C@H](C(=O)N2CCN(c3ccccc3)CC2)O1
- inhibition (Human rhinovirus sp. [1]): 100%
- inhibition (Human rhinovirus sp. [2]): 69%
- IC50 [3]: 8.57 µM

SMILES: CC1(C)O[C@H](C(=O)Nc2nc3ccccc3s2)[C@@H](C(=O)N2CCN(Cc3ccccc3)CC2)O1
- inhibition (Human rhinovirus sp. [1]): 56.4%
- inhibition (Human rhinovirus sp. [2]): 20.8%
- IC50 [3]: > 10 µM

SMILES: COc1cccc(NCCNC(=O)[C@@H]2OC(C)(C)O[C@H]2C(=O)Nc2nc3ccccc3s2)c1
- inhibition (Human rhinovirus sp. [1]): 99.9%
- inhibition (Human rhinovirus sp. [2]): 62.2%
- IC50 [3]: 8.28 µM

SMILES: CC1(C)O[C@H](C(=O)Nc2nc3ccccc3s2)[C@@H](C(=O)N2CCN(c3ccccc3C#N)CC2)O1
- inhibition (Human rhinovirus sp. [1]): 84.2%
- inhibition (Human rhinovirus sp. [2]): 48.1%
- IC50 [3]: > 10 µM

SMILES: Cc1cccc(CN2CCN(C(=O)[C@@H]3OC(C)(C)O[C@H]3C(=O)Nc3nc4ccccc4s3)CC2)c1
- inhibition (Human rhinovirus sp. [1]): 78.7%
- inhibition (Human rhinovirus sp. [2]): 20.2%
- IC50 [3]: > 10 µM

SMILES: Cc1cccc(CN2CCN(C(=O)[C@H]3OC(C)(C)O[C@@H]3C(=O)Nc3nc4ccccc4s3)CC2)c1
- inhibition (Human rhinovirus sp. [1]): 85.3%
- inhibition (Human rhinovirus sp. [2]): 34.3%
- IC50 [3]: > 10 µM

SMILES: CC1(C)O[C@@H](C(=O)Nc2nc3ccccc3s2)[C@H](C(=O)N2CCN(Cc3ccccc3)CC2)O1
- inhibition (Human rhinovirus sp. [1]): 85.5%
- inhibition (Human rhinovirus sp. [2]): 18.8%
- IC50 [3]: > 10 µM

SMILES: CC1(C)O[C@@H](C(=O)Nc2nc3ccccc3s2)[C@H](C(=O)N2CCN(c3ccccc3C#N)CC2)O1
- inhibition (Human rhinovirus sp. [1]): 100%
- inhibition (Human rhinovirus sp. [2]): 86%
- IC50 [3]: 2.5 µM

SMILES: CC1(C)O[C@@H](C(=O)Nc2nc3ccccc3s2)[C@H](C(=O)N2CCN(c3ccccn3)CC2)O1
- inhibition (Human rhinovirus sp. [1]): 97.8%
- inhibition (Human rhinovirus sp. [2]): 64.4%
- IC50 [3]: 10.6 µM

SMILES: COc1cccc(NCCNC(=O)[C@H]2OC(C)(C)O[C@@H]2C(=O)Nc2nc3ccccc3s2)c1
- inhibition (Human rhinovirus sp. [1]): 85.2%
- inhibition (Human rhinovirus sp. [2]): 43.6%
- IC50 [3]: > 10 µM
